“And” between values parts separate entries of the source, which are not always exact repeats. Equal values may be shown once.
Tests used:
Format in all cases: cell-based
[1] = tested on: Mixture of different problem yeasts from a beverage filling unit; assay: Sterilization test in contaminated apple juice against yeast mix; conditions: germ seed 56.000 cfu/ml; as to Visual evaluation after 4 weeks: key: − = not fermented; + = fermented
Method: (§1) Soft drinks were contaminated with the respective stated microorganisms. The active compound concentration required for disinfecting the beverages was determined by sterilization tests.
(§2) Nutrient Media: Yeast orange serum agar (from Oxoid CM657)
(§3) Substances: The substances used were employed neat or as ethanolic or butanolic solutions (for example 2.0% by volume) or suspensions. Dimethyl dicarbonate, Na benzoate, K sorbate, sorbic anhydride and benzoic anhydride were synthesized by known methods or were commercially available. The respective solutions were in each case freshly prepared (alcoholysis). Apparatus: 50 ml tissue culture flasks from Greiner, gauze compresses from Holthans, Thoma counting chamber from Brand.
(§4) As a matter of principle, sterile reagents and apparatus were used. In addition to sterile disposable articles, the required apparatus and reagents were sterilized by suitable measures before use. Sterilization measures were heat treatment in a drying cabinet (at least 8 hours at about 120° C.) or in an autoclave (at least 15 minutes at about 120° C.).
(§5) Before the test was carried out, the beverage substrates were filled into tissue culture flasks. In general, the amount of beverage was 40 ml. Filling was carried out under sterile conditions. At this point in time, it was also possible for the persistent preservatives to be introduced.
(§6) The cultures, which were grown under optimum conditions (in tissue culture flasks from Greiner; 50 ml, 25 cm^2 or in oblique agar tubes), were wetted with up to 30 ml (depending on the test germ) of NaCl solution (if appropriate with addition of about 3 drops of Tween 80), rinsed off or, using glass beads (depending on the germ), scrubbed off intensively and, if required, filtered. Alternatively, it was also possible to employ fluid cultures. Using a microscope and a Thoma chamber, it was possible to carry out a preliminary determination of the germ number. An accurate determination of the germ number of the germ solution used was carried out using the Koch inoculation plate method.
(§7) Depending on the given germ seed (for example 50-500 germs/ml of substrate), the appropriate volume of germ solution (original or dilution) were added and the sample was shaken intensively.
(§8) The doses of active compound, added as pure substance or as appropriate alcoholic solution or suspension in the case of dimethyl dicarbonate and the carboxylic anhydrides, were then added. For a period of about 20 seconds, the samples were immediately shaken intensively.
(§9) The beverage samples were stored at a cultivation temperature of 26° C.±2° C.
(§10) In the case of formerly clear beverages, clouding indicates contamination. In the case of cloudy fruit pulp-containing beverages, visual evaluation was not always possible. Accordingly, in these cases evaluation was carried out as a germ number determination in agar.
The tests were carried out as Stated in Example 1.

[2] = tested on: Mixture of different problem yeasts from a beverage filling unit; assay: as above; conditions: contact time 24 hours at 20° C., germ seed 56.000 cfu/ml; as to Visual evaluation after 4 weeks: key: − = not fermented; + = fermented
Saccharomyces cerevisiae = assay: Sterilization test in contaminated apple juice against Saccharomyces cerevisiae; conditions: for Germ number after 24 h (carried out in duplicate): contact time 24 hours at 20° C. As to Visual evaluation after 4 weeks: key: − = not fermented; + = fermented.
Method: as §1, §2, §3, §4, §5, §6, §7, §8, §9, §10
The tests were carried out as stated in Example 1.

[3] = Table 2: 50 mg/l, apple juice, germ seed 56.000 cfu/ml
[4] = Table 2: 100 mg/l, apple juice, germ seed 56.000 cfu/ml
[5] = Table 2: 250 mg/l, apple juice, germ seed 56.000 cfu/ml
[6] = 177 mg/l, pH 3.5, apple juice, germ seed 56 000 cfu/ml
[7] = 177 mg/l, pH 6.0, apple juice, germ seed 56 000 cfu/ml
[8] = Table 2: 177 mg/l, apple juice, germ seed 56.000 cfu/ml
[9] = 100 mg/l, pH 3.5, apple juice, germ seed 56 000 cfu/ml
[10] = 150 mg/l, pH 3.5, apple juice, germ seed 56 000 cfu/ml
[11] = 150 mg/l, pH 6.0, apple juice, germ seed 56 000 cfu/ml
[12] = 250 mg/l, pH 3.5, apple juice, germ seed 56 000 cfu/ml
[13] = 250 mg/l, pH 6.0, apple juice, germ seed 56 000 cfu/ml

C/C=C/C=C/C(=O)OC(=O)/C=C/C=C/C [Sorbic anhydride, sorbic anhydride]
Visual evaluation after 4 weeks ([1]; 50 mg/l): + | Visual evaluation after 4 weeks ([1]; 100 mg/l): + | Visual evaluation after 4 weeks ([1]; 250 mg/l): − | Germ number after 24 h (carried out in duplicate) ([2]; 50 mg/l): 2.6 × 10^5 and 1.8 × 10^5 | Germ number after 24 h (carried out in duplicate) ([2]; 100 mg/l): 9.2 × 10^4 and 9.4 × 10^4 | Germ number after 24 h (carried out in duplicate) ([2]; 250 mg/l): 985 and 1080 | Germ number after 24 h (carried out in duplicate) (Saccharomyces cerevisiae; [3]): <10 | Visual evaluation after 4 weeks (Saccharomyces cerevisiae; [3]): − | Germ number after 24 h (carried out in duplicate) (Saccharomyces cerevisiae; [4]): <10 | Visual evaluation after 4 weeks (Saccharomyces cerevisiae; [4]): − | Germ number after 24 h (carried out in duplicate) (Saccharomyces cerevisiae; [5]): <10 | Visual evaluation after 4 weeks (Saccharomyces cerevisiae; [5]): −

O=C([O-])c1ccccc1.[Na+] [Na benzoate, Sodium benzoate, reference compound]
Visual evaluation after 4 weeks ([1]; 177 mg/l): + | Germ number after 24 h (carried out in duplicate) ([2]; 177 mg/l): 1.3 × 10^5 and 1.1 × 10^5 | Germ number after 24 h (carried out in duplicate) (Saccharomyces cerevisiae; [6]): 6.8 × 10^5 and 5.3 × 10^5 | Visual evaluation after 4 weeks (Saccharomyces cerevisiae; [6]): + | Germ number after 24 h (carried out in duplicate) (Saccharomyces cerevisiae; [7]): 2.6 × 10^6 and 2.2 × 10^6 | Visual evaluation after 4 weeks (Saccharomyces cerevisiae; [7]): + | Germ number after 24 h (carried out in duplicate) (Saccharomyces cerevisiae; [8]): 1.3 × 10^5 and 1.1 × 10^5 | Visual evaluation after 4 weeks (Saccharomyces cerevisiae; [8]): +

O=C(OC(=O)c1ccccc1)c1ccccc1 [Benzoic anhydride, benzoic anhydride]
Germ number after 24 h (carried out in duplicate) (Saccharomyces cerevisiae; [9]): <10 | Visual evaluation after 4 weeks (Saccharomyces cerevisiae; [9]): − | Visual evaluation after 4 weeks (Saccharomyces cerevisiae; 100 mg/l, pH 6.0, apple juice, germ seed 56 000 cfu/ml): + | Germ number after 24 h (carried out in duplicate) (Saccharomyces cerevisiae; [10]): <10 | Visual evaluation after 4 weeks (Saccharomyces cerevisiae; [10]): − | Germ number after 24 h (carried out in duplicate) (Saccharomyces cerevisiae; [11]): about 10 | Visual evaluation after 4 weeks (Saccharomyces cerevisiae; [11]): + | Germ number after 24 h (carried out in duplicate) (Saccharomyces cerevisiae; [12]): <10 | Visual evaluation after 4 weeks (Saccharomyces cerevisiae; [12]): − | Germ number after 24 h (carried out in duplicate) (Saccharomyces cerevisiae; [13]): <10 | Visual evaluation after 4 weeks (Saccharomyces cerevisiae; [13]): −

COC(=O)OC(=O)OC [Dimethyl dicarbonate, reference compound]
Germ number after 24 h (carried out in duplicate) ([1]; 250 mg/l, contact time 24 hours at 20° C.): 6.8 × 10^6 and 5.7 × 10^6 | Visual evaluation after 4 weeks ([1]; 250 mg/l): + | Visual evaluation after 4 weeks (Saccharomyces cerevisiae; [12]): + | Visual evaluation after 4 weeks (Saccharomyces cerevisiae; [13]): + | Germ number after 24 h (carried out in duplicate) (Saccharomyces cerevisiae; [5]): <10 | Visual evaluation after 4 weeks (Saccharomyces cerevisiae; [5]): +

Reference: patent US8207224B2, “Preservatives based on carboxylic anhydrides” (LANXESS Deutchland GmbH, priority 2006, dated 2012)
